Here are results for 63 molecules from publication PMC4850295, “Using a Genetically Encoded Sensor to Identify Inhibitors of Toxoplasma gondii Ca^2+ Signaling” (The Journal of Biological Chemistry, 2016).

The test system of the assay is T1, GCaMP5-expressing T. gondii.
T1 construct: whole extracellular parasites expressing GCaMP5 Ca2+ sensor
Also on record: species or system GCaMP5-expressing Toxoplasma gondii, extracellular; GCaMP5 fluorescence (cytosolic Ca2+) after 100 uM zaprinast in compound-pretreated extracellular parasites, background-subtracted, relative to zaprinast alone. Conditions: 100 uM zaprinast stimulation; 10 min pretreatment; mean of two replicates; 0.23 h. In a few lines:
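Read-out is GCaMP5 calcium fluorescence (ex 485/em 525 nm) taken 4 min after 100 μM zaprinast at 37 °C, following 10 min compound pretreatment at 10 μM in duplicate biological replicates. Values are basal-subtracted fold change versus zaprinast-only controls; parasites held extracellular in Ringer's solution.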
As to `CN(c1ccc(NC(=O)NCCN2CCOCC2)cc1)c1ccnc(Nc2ccc(CS(C)(=O)=O)cc2)n1` [GW830365A], the “fold change in fluorescence relative to zaprinast alone” value is reported as 1.217.

`CCn1c(-c2nonc2N)nc2cncc(Br)c21` [SB-738004]: the “fold change in fluorescence relative to zaprinast alone” value is listed as 0.8309.

For `NS(=O)(=O)c1ccc(N/N=C2\C(=O)Nc3ccc4ncccc4c32)cc1` [GW305178X], the “fold change in fluorescence relative to zaprinast alone” value is recorded as 0.9853.

Regarding `CNc1nc(-c2ccc3c(N)n[nH]c3c2)cc(N2C[C@@H](C(=O)NC3CCCCC3)OC[C@H]2C)n1` [GSK2375584A], the “fold change in fluorescence relative to zaprinast alone” value turned out to be 1.379.

For `c1ccc(COc2ccc(Nc3ncnc4ccc(-c5ccco5)cc34)cc2)cc1` [GW284372X], the “fold change in fluorescence relative to zaprinast alone” value was found to be 0.7189.

`COc1cc(C=NNc2ncnc3c2cnn3-c2ccccc2)ccc1O` [GW513184X]: the “fold change in fluorescence relative to zaprinast alone” value was 0.5493.

Consider `Fc1ccc(-c2cc(-c3c[nH]nc3-c3ccccn3)ccn2)cc1` [GW680975X], for which the “fold change in fluorescence relative to zaprinast alone” value came to 1.061.

Turning to `Fc1cccc(COc2ccc(Nc3ncncc3C#Cc3ccccc3)cc2Cl)c1` [GW651576X], the “fold change in fluorescence relative to zaprinast alone” value amounted to 1.149.

`CN(C)c1cc2c(Nc3ccc4nc(Cc5ccccc5)[nH]c4c3)ncnc2cn1` [GW301888X]: the “fold change in fluorescence relative to zaprinast alone” value was 1.125.

Take `COC(=O)c1cccc(NC(=O)NC2CCN(c3ccnc(Nc4cc(OC)c(OC)c(OC)c4)n3)C2)c1` (stereo not drawn) [GSK1379767A]: the “fold change in fluorescence relative to zaprinast alone” value was found to be 1.23.

Take `c1ccc(-c2ccnc3[nH]ccc23)cc1` [SB-693578]: the “fold change in fluorescence relative to zaprinast alone” value came to 1.319.

`Cc1ccc(NC(=O)CC2CC2)cc1-c1ccc(C(=O)NCC2CC2)cc1` [GW796920X]: the “fold change in fluorescence relative to zaprinast alone” value was 1.231.

Turning to `COc1cccc(OC)c1C(=O)Nc1cccc(-c2nn3ccccc3c2-c2ccnc(Nc3cccc(F)c3)n2)c1` [GSK361065A], the “fold change in fluorescence relative to zaprinast alone” value worked out at 0.9782.

Consider `CCn1c(-c2nonc2N)nc2cncc(C(=O)N3CCNCC3)c21` [SB-759335-B], for which the “fold change in fluorescence relative to zaprinast alone” value is listed as 1.333.

As to `CCCN1CCC(Oc2cc(Nc3nc(Nc4cccc(F)c4C(N)=O)c4cc[nH]c4n3)c(OC)cc2Cl)CC1` [GSK1713088A], the “fold change in fluorescence relative to zaprinast alone” value came out at 1.364.

On to `CCCc1ccc(S(=O)(=O)NC2CCN(c3ccnc(Nc4ccc(OC)cc4)n3)C2)cc1` (stereo not drawn) [GSK1379737A], for which the “fold change in fluorescence relative to zaprinast alone” value is listed as 0.6293.

Take `c1ccc(Oc2ccc(Nc3ccnc4cc(-c5ccc(CN6CCCCC6)o5)ccc34)cc2)nc1` [GW567143X]: the “fold change in fluorescence relative to zaprinast alone” value was determined as 0.8249.

On to `O=C(Nc1cccc(-c2nn3ccccc3c2-c2ccnc(Nc3cccc(C(F)(F)F)c3)n2)c1)c1c(F)cccc1F` [GSK292658A], for which the “fold change in fluorescence relative to zaprinast alone” value was determined as 1.154.

For `O=C(NCCNc1ccnc(Nc2ccc(F)cc2)n1)Nc1ccc2c(c1)OCO2` [GSK1379882A], the “fold change in fluorescence relative to zaprinast alone” value worked out at 1.425.

On to `COc1cccc(COc2cc(-n3cnc4ccccc43)sc2C(N)=O)c1` [GW804482X], for which the “fold change in fluorescence relative to zaprinast alone” value amounted to 1.105.

Regarding `CN(c1ccc2c(c1)nc(NCc1ccccc1)n2C)c1ccnc(Nc2ccc(CS(C)(=O)=O)cc2)n1` [GW811603A], the “fold change in fluorescence relative to zaprinast alone” value turned out to be 1.239.

Turning to `COc1ccc(Nc2nccc(NCCNC(=O)Nc3cc(C)ccc3C)n2)cc1` [GSK1379899A], the “fold change in fluorescence relative to zaprinast alone” value was determined as 1.713.

Regarding `CCN1CCN(CCCC(=O)Nc2n[nH]c3nc(-c4ccc(O)cc4)c(Br)cc23)CC1` [SB-731579], the “fold change in fluorescence relative to zaprinast alone” value was determined as 1.047.

As to `Cc1ccc2c(-c3ccnc(Nc4ccc(C(F)(F)F)cc4)n3)cnn2n1` [GW819776X], the “fold change in fluorescence relative to zaprinast alone” value was determined as 1.244.

As to `COc1ccc(Nc2nccc(N3CCC(NC(=O)Nc4cccc(C(C)=O)c4)C3)n2)cc1` (stereo not drawn) [GSK1379731A], the “fold change in fluorescence relative to zaprinast alone” value is reported as 0.6491.

Consider `CC(C)(C)n1cnc2c(N)ncnc21` [SKF-97359], for which the “fold change in fluorescence relative to zaprinast alone” value came out at 1.052.

For `Fc1ccc(-c2c(-c3ccncc3)nc3n2CCS3)cc1` [SKF-86055], the “fold change in fluorescence relative to zaprinast alone” value is 1.285.

On to `CCn1c(-c2nonc2N)nc2c(C#CC(C)(C)O)nc(OC[C@H](N)c3ccccc3)cc21` [GSK943949A], for which the “fold change in fluorescence relative to zaprinast alone” value is recorded as 1.114.

Consider `NS(=O)(=O)c1ccc(Nc2cc(-c3ccc(O)c(F)c3)n[nH]2)cc1` [GW831091X], for which the “fold change in fluorescence relative to zaprinast alone” value amounted to 1.195.

Regarding `Cc1ccccc1-n1cnc2c(N)ncnc21` [SKF-97510], the “fold change in fluorescence relative to zaprinast alone” value is listed as 1.09.

With `Cc1cccc(-c2nc(Nc3cccc(C(N)=O)c3)c3ccccc3n2)n1` [GW876019X], the “fold change in fluorescence relative to zaprinast alone” value is on record as 1.051.

Consider `Cc1cc(O)cc(C)c1/C=C/c1cncc(C(N)=O)c1` [GW435821X], for which the “fold change in fluorescence relative to zaprinast alone” value is 1.076.

As to `COc1cccc(-n2ncc3c(N/N=C/c4ccc(S(C)(=O)=O)cc4)ncnc32)c1` [GW811168X], the “fold change in fluorescence relative to zaprinast alone” value came out at 0.6755.

Regarding `c1ccc(Oc2ccc(Nc3ccnc4cc(-c5ccc(CNCCN6CCOCC6)o5)ccc34)cc2)nc1` [GW567145X], the “fold change in fluorescence relative to zaprinast alone” value is listed as 0.643.

In the case of `COc1cc2ncn(-c3cc(OCCc4ccccc4)c(C(N)=O)s3)c2cc1OC` [GSK204925A], the “fold change in fluorescence relative to zaprinast alone” value is on record as 0.9795.

For `Fc1ccc(-c2ncn(CCCN3CCOCC3)c2-c2cccnc2)cc1` [SB-211743], the “fold change in fluorescence relative to zaprinast alone” value turned out to be 1.228.

As for `C[C@@H]1CC[C@@H](C(=O)Nc2ccccc2)CN1c1cc(-c2ccc3c(N)n[nH]c3c2)nc(N)n1` [GSK2286062A], the “fold change in fluorescence relative to zaprinast alone” value came out at 0.9223.

`CCn1c(-c2nonc2N)nc2cncc(CNC3CCNCC3)c21` [SB-747651-A]: the “fold change in fluorescence relative to zaprinast alone” value is listed as 1.501.

As to `Nc1ncc(-c2cccc(S(N)(=O)=O)c2)c2scc(-c3ccc(F)c(Cl)c3)c12` [GW856804X], the “fold change in fluorescence relative to zaprinast alone” value is 0.8933.

Consider `Clc1ccc(-c2cc(-c3cn[nH]c3-c3ccccn3)ccn2)cc1` [GW681251X], for which the “fold change in fluorescence relative to zaprinast alone” value is on record as 1.448.

On to `O=C(Nc1ccc2c(c1)OCO2)NC1CCN(c2ccnc(Nc3ccc(F)cc3)n2)C1` (stereo not drawn) [GSK1379724A], for which the “fold change in fluorescence relative to zaprinast alone” value was 0.9401.

For the molecule `Cn1cc(-c2ccc3c(c2)CCN3C(=O)Cc2ccccc2Cl)c2c(N)ncnc21` [GSK2608885A], the “fold change in fluorescence relative to zaprinast alone” value was found to be 1.437.

Take `CCn1c(-c2nonc2N)nc2c(C#CC(C)(C)O)ncc(OC3CCNCC3)c21` [GSK619487A]: the “fold change in fluorescence relative to zaprinast alone” value came to 1.184.

`NS(=O)(=O)c1ccc(Nc2cc(-c3cccc(O)c3)n[nH]2)cc1` [GW831090X]: the “fold change in fluorescence relative to zaprinast alone” value is recorded as 1.167.

Consider `O=C(Nc1n[nH]c2cc(-c3cccc(F)c3F)ccc12)C1CC1` [SB-733894], for which the “fold change in fluorescence relative to zaprinast alone” value was determined as 1.167.

Consider `COc1ccc(-c2ccncc2)cc1C(N)=O` [GSK605714A], for which the “fold change in fluorescence relative to zaprinast alone” value is given as 1.144.

Turning to `CNc1nccc(-c2c(-c3ccc(F)cc3)ncn2C2CCN(C)CC2)n1` [SB-222903], the “fold change in fluorescence relative to zaprinast alone” value is on record as 0.211.

Regarding `COc1cccc(C2=C(Nc3cccc(C(=O)O)c3)C(=O)NC2=O)c1` [SB-390770], the “fold change in fluorescence relative to zaprinast alone” value is on record as 0.98.

`CC(=O)Nc1cccc(C#Cc2cncnc2Nc2ccc(OCc3cccc(F)c3)c(Cl)c2)c1` [GW703087X]: the “fold change in fluorescence relative to zaprinast alone” value worked out at 1.104.

For the molecule `Fc1ccc(Nc2nccc(-c3c(-c4ccc(Cl)cc4)nn4ncccc34)n2)cc1F` [GW829058X], the “fold change in fluorescence relative to zaprinast alone” value amounted to 1.046.

In the case of `COc1cccc(-c2c[nH]c3c(N/N=C/c4ccncc4)ncnc23)c1` [GW814408X], the “fold change in fluorescence relative to zaprinast alone” value was 0.6391.

Regarding `c1ccc(-c2ccc3c(-c4ccnc(Nc5ccc6c(c5)OCCO6)n4)cnn3n2)cc1` [GW818941X], the “fold change in fluorescence relative to zaprinast alone” value is on record as 0.7769.

As to `NS(=O)(=O)CCc1cccc(Nc2nccc(-c3c(-c4cccc(NC(=O)c5c(F)cccc5F)c4)nn4ccccc34)n2)c1` [GSK336735A], the “fold change in fluorescence relative to zaprinast alone” value is on record as 1.201.

Take `Nc1nccc2scc(-c3ccc4c(c3)CCN4C(=O)Cc3cc(F)ccc3F)c12` [GSK2587663A]: the “fold change in fluorescence relative to zaprinast alone” value is 0.7245.

Consider `Nc1nccc(-c2c(-c3ccc(F)cc3)ncn2CCCN2CCOCC2)n1` [SB-216385], for which the “fold change in fluorescence relative to zaprinast alone” value was 1.045.

For the molecule `COC(=O)Nc1nc2ccc(Oc3ccc(NC(=O)Nc4cc(C(F)(F)F)ccc4F)cc3)cc2[nH]1` [GW654607A], the “fold change in fluorescence relative to zaprinast alone” value is reported as 1.325.

Regarding `Nc1n[nH]c2nnc(-c3ccccc3)cc12` [SB-517389], the “fold change in fluorescence relative to zaprinast alone” value is given as 1.055.

`COc1cc(Nc2nccc(-c3cnn4ncccc34)n2)cc(OC)c1` [GW801372X]: the “fold change in fluorescence relative to zaprinast alone” value came out at 0.4013.

`Nc1ncnc2scc(-c3ccc(NC(=O)Cc4cc(F)ccc4F)cc3)c12` [SB-731254-M]: the “fold change in fluorescence relative to zaprinast alone” value came out at 1.242.

Turning to `Cc1cccc2c(-c3ccncn3)c(-c3ccc(F)cc3)nn12` [GW515532X], the “fold change in fluorescence relative to zaprinast alone” value was 0.6118.

On to `NC[C@H](CC1CCCCC1)NC(=O)c1ccc(-c2ccnc3[nH]ccc23)s1` [GSK1581428A], for which the “fold change in fluorescence relative to zaprinast alone” value worked out at 1.197.

For the molecule `Cc1ccc(C(=O)NC2CC2)cc1-c1ccc2[nH]ncc2c1` [GW820759X], the “fold change in fluorescence relative to zaprinast alone” value is 1.265.

For the molecule `CN(C)CCNC(=O)Nc1ccc(N(C)c2ccnc(Nc3ccc(CS(C)(=O)=O)cc3)n2)cc1` [GW830900A], the “fold change in fluorescence relative to zaprinast alone” value came out at 1.233.
